Source: PMC12163827, “Identification of Novel Leishmania donovani Nucleoside Hydrolase Inhibitors from Banisteriopsis laevifolia Using Affinity Selection-Mass Spectrometry” (ACS Omega, 2025)
Like-named read-outs stand apart in the source and are kept apart here. Each block holds one molecule with its values, some of them ahead of it.

What was measured:
Format in all cases: biochemical
[1] = target: T1, Leishmania donovani nucleoside hydrolase (LdNH) (Leishmania donovani, UniProt Q8WQX2); test: HPLC-DAD inosine hydrolysis assay with immobilized LdNH, single concentration […] with Triton X-100; also AS-MS (affinity ratio […]); settings: read-out: inhibition at 100 μmol/L (with Triton X-100) (%)
T1 construct: gene iunh
T1 sequence (Q8WQX2 1-314): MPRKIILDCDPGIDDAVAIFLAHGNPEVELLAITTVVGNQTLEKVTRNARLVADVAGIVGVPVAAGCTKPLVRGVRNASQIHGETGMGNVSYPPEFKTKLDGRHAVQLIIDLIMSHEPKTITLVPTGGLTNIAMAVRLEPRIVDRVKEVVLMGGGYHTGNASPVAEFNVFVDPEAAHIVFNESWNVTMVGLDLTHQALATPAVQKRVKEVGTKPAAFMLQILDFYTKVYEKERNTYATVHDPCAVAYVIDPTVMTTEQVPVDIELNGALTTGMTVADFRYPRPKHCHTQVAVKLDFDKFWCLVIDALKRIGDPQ

[2] = target: T1, Leishmania donovani nucleoside hydrolase (LdNH); test: as above; settings: read-out: inhibition at 100 μmol/L (with Triton X-100) (%); remark: listed apart in the source
[3] = target: T1, Leishmania donovani nucleoside hydrolase (LdNH); test: HPLC-DAD inosine hydrolysis assay with immobilized purified LdNH plus […] Triton X-100; also AS-MS (affinity ratio […])
[4] = target: T1, Leishmania donovani nucleoside hydrolase (LdNH); test: as above; remark: listed apart in the source

Structure (SMILES): O=c1cc(-c2ccc(O)c(O)c2)oc2c([C@@H]3O[C@H](CO)[C@@H](O)[C@H](O)[C@H]3O)c(O)cc(O)c12 [orientin]
- inhibition at 100 µM [1]: 30.4%

- inhibition at 100 µM [2]: 61.2%
Structure (SMILES): C[C@@H]1O[C@@H](OC[C@H]2O[C@@H](Oc3c(-c4ccc(O)c(O)c4)oc4cc(O)cc(O)c4c3=O)[C@H](O)[C@@H](O)[C@@H]2O)[C@H](O)[C@H](O)[C@H]1O [rutin]

- IC50 [3]: 40.2 ± 16.6 µM
Structure (SMILES): O=c1c(O[C@@H]2O[C@H](CO)[C@@H](O)[C@H](O)[C@H]2O)c(-c2ccc(O)c(O)c2)oc2cc(O)cc(O)c12 [isoquercetin]

- IC50 [4]: 41.6 ± 8.9 µM
Structure (SMILES): O=c1c(O[C@@H]2O[C@H](CO)[C@@H](O)[C@H](O)[C@H]2O)c(-c2ccc(O)cc2)oc2cc(O)cc(O)c12 [astragalin]
